Laboratory results taken from PubChem BioAssay (NCI).
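48-hour exposure; five concentrations; linearly interpolated endpoints. GI50: concentration for 50% inhibition of growth. Definition used: TGI = concentration required for complete inhibition of growth.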

Tests used:
Experiment in all cases: growth of human tumour cells (NCI), 48 h
[1] = system: NCI-H226 lung
[2] = system: K-562 leukemia
[3] = system: RXF 393 renal
[4] = system: TK-10 renal
[5] = system: 786-0 renal
[6] = system: SF-268 CNS
[7] = system: BT-549 breast
[8] = system: SNB-19 CNS
[9] = system: U251 CNS
[10] = system: NCI-H460 lung
[11] = system: UO-31 renal
[12] = system: SF-539 CNS
[13] = system: OVCAR-4 ovarian
[14] = system: PC-3 prostate
[15] = system: RPMI-8226 leukemia
[16] = system: HCC-2998 colon
[17] = system: SNB-75 CNS
[18] = system: SK-MEL-5 melanoma
[19] = system: KM12 colon
[20] = system: DU-145 prostate
[21] = system: A498 renal
[22] = system: UACC-62 melanoma
[23] = system: LOX IMVI melanoma
[24] = system: NCI-H23 lung
[25] = system: HCT-15 colon
[26] = system: MDA-MB-435
[27] = system: HOP-92 NSCLC
[28] = system: HL-60(TB) leukemia
[29] = system: COLO 205 colon
[30] = system: OVCAR-3 ovarian
[31] = system: MALME-3M melanoma
[32] = system: NCI/ADR-RES ovarian
[33] = system: A549 NSCLC
[34] = system: T-47D breast
[35] = system: EKVX NSCLC
[36] = system: OVCAR-5 ovarian
[37] = system: M14 melanoma
[38] = system: SK-MEL-28 melanoma
[39] = system: MCF7 breast
[40] = system: CAKI-1 renal
[41] = system: SK-OV-3 ovarian
[42] = system: NCI-H522 lung
[43] = system: ACHN renal
[44] = system: HS 578T breast
[45] = system: SW-620 colon
[46] = system: HCT-116 colon
[47] = system: SR leukemia
[48] = system: MDA-MB-231 breast
[49] = system: HT29 colon
[50] = system: IGROV1 ovarian
[51] = system: SN12C renal
[52] = system: SF-295 CNS
[53] = system: OVCAR-8 ovarian
[54] = system: SK-MEL-2 melanoma
[55] = system: CCRF-CEM leukemia
[56] = system: UACC-257 melanoma
[57] = system: HOP-62 NSCLC
[58] = system: MOLT-4 leukemia

## Cc1ccc(S(=O)(=O)OCC#CCOS(=O)(=O)c2ccc(C)cc2)cc1
[1]
  GI50: 5.83 µM
  TGI: 12.9 µM
[2]
  GI50: 2.29 µM
  TGI: 10.3 µM
[3]
  GI50: 2.22 µM
  TGI: 5.21 µM
[4]
  GI50: 2.37 µM
  TGI: 6.27 µM
[5]
  GI50: 2.57 µM
  TGI: 7.15 µM
[6]
  GI50: 1.79 µM
  TGI: 3.87 µM
[7]
  GI50: 4.57 µM
  TGI: 9.68 µM
[8]
  GI50: 7.11 µM
  TGI: 22.2 µM
[9]
  GI50: 1.69 µM
  TGI: 3.22 µM
[10]
  GI50: 1.8 µM
  TGI: 4.07 µM
[11]
  GI50: 0.228 µM
  TGI: 0.538 µM
[12]
  GI50: 2.5 µM
  TGI: 7.01 µM
[13]
  GI50: 4.81 µM
  TGI: 13.6 µM
[14]
  GI50: 1.79 µM
  TGI: 3.6 µM
[15]
  GI50: 1.85 µM
  TGI: 4.42 µM
[16]
  GI50: 2.85 µM
  TGI: 8.73 µM
[17]
  GI50: 1.76 µM
  TGI: 4.38 µM
[18]
  GI50: 3.69 µM
  TGI: 9.96 µM
[19]
  GI50: 2.08 µM
  TGI: 4.6 µM
[20]
  GI50: 1.86 µM
  TGI: 3.76 µM
[21]
  GI50: 4.34 µM
  TGI: 11.7 µM
[22]
  GI50: 3.96 µM
  TGI: 12.6 µM
[23]
  GI50: 1.15 µM
  TGI: 2.56 µM
[24]
  GI50: 1.99 µM
  TGI: 5.04 µM
[25]
  GI50: 3.2 µM
  TGI: 14.9 µM
[26]
  GI50: 1.9 µM
  TGI: 4.3 µM
[27]
  GI50: 1.97 µM
  TGI: 4.17 µM
[28]
  GI50: 1.51 µM
  TGI: 3.55 µM
[29]
  GI50: 2.42 µM
  TGI: 5.72 µM
[30]
  GI50: 1.85 µM
  TGI: 3.36 µM
[31]
  GI50: 1.97 µM
  TGI: 4.1 µM
[32]
  GI50: 2.12 µM
  TGI: 5.93 µM
[33]
  GI50: 4.85 µM
  TGI: 19.8 µM
[34]
  GI50: 1.94 µM
  TGI: 4.26 µM
[35]
  GI50: 2.08 µM
  TGI: 4.38 µM
[36]
  GI50: 4.99 µM
  TGI: 14.5 µM
[37]
  GI50: 2.59 µM
  TGI: 7.65 µM
[38]
  GI50: 2.69 µM
  TGI: 7.8 µM
[39]
  GI50: 3.21 µM
  TGI: 16.7 µM
[40]
  GI50: 0.512 µM
  TGI: 1.5 µM
[41]
  GI50: 6.51 µM
  TGI: 14.9 µM
[42]
  GI50: 1.19 µM
  TGI: 3.12 µM
[43]
  GI50: 2.27 µM
  TGI: 5.94 µM
[44]
  GI50: 2.75 µM
  TGI: 14.2 µM
[45]
  GI50: 1.8 µM
  TGI: 3.96 µM
[46]
  GI50: 2.08 µM
  TGI: 5.47 µM
[47]
  GI50: 1.27 µM
  TGI: 3.89 µM
[48]
  GI50: 3.39 µM
  TGI: 11 µM
[49]
  GI50: 1.87 µM
  TGI: 4.17 µM
[50]
  GI50: 0.992 µM
  TGI: 2.86 µM
[51]
  GI50: 3.89 µM
  TGI: 17.3 µM
[52]
  GI50: 1.74 µM
  TGI: 3.62 µM
[53]
  GI50: 2.45 µM
  TGI: > 21.5 µM
[54]
  GI50: 3.07 µM
  TGI: 9.66 µM
[55]
  GI50: 1.96 µM
  TGI: 5.79 µM
[56]
  GI50: 1.92 µM
  TGI: 4.07 µM
[57]
  GI50: 2.35 µM
  TGI: 5.69 µM
[58]
  GI50: 2.39 µM
  TGI: 7.81 µM

## O=C(CSCC(=O)N/N=C/c1ccccc1O)N/N=C\c1ccccc1O
[1]
  GI50: 3.43 µM
  TGI: > 100 µM
[2]
  GI50: 2.39 µM
  TGI: > 100 µM
[3]
  GI50: 2.46 µM
  TGI: > 100 µM
[4]
  GI50: 1.83 µM
  TGI: > 100 µM
[5]
  GI50: 1.95 µM
  TGI: 6.59 µM
[6]
  GI50: 1.2 µM
  TGI: > 100 µM
[7]
  GI50: 1.73 µM
  TGI: 56.3 µM
[8]
  GI50: 2.95 µM
  TGI: > 100 µM
[9]
  GI50: 1.06 µM
  TGI: > 100 µM
[10]
  GI50: 2.27 µM
  TGI: > 100 µM
[11]
  GI50: 1.06 µM
  TGI: 37.3 µM
[12]
  GI50: 2.1 µM
  TGI: 23 µM
[13]
  GI50: 1.72 µM
  TGI: > 100 µM
[14]
  GI50: 3.06 µM
  TGI: > 100 µM
[15]
  GI50: 3.49 µM
  TGI: > 100 µM
[16]
  GI50: 1.61 µM
  TGI: 34.4 µM
[17]
  GI50: 67.7 µM
  TGI: > 100 µM
[18]
  GI50: 1.86 µM
  TGI: > 100 µM
[19]
  GI50: 2.42 µM
  TGI: > 100 µM
[20]
  GI50: 1.92 µM
  TGI: > 100 µM
[21]
  GI50: 14.3 µM
  TGI: > 100 µM
[22]
  GI50: 1.61 µM
  TGI: 7.13 µM
[23]
  GI50: 0.748 µM
  TGI: > 100 µM
[24]
  GI50: 3.33 µM
  TGI: > 100 µM
[25]
  GI50: 0.52 µM
  TGI: > 100 µM
[26]
  GI50: 3.44 µM
  TGI: > 100 µM
[27]
  GI50: 1.73 µM
  TGI: > 100 µM
[28]
  GI50: 1.49 µM
  TGI: 5.11 µM
[29]
  GI50: 2.19 µM
  TGI: > 100 µM
[30]
  GI50: 4.76 µM
  TGI: > 100 µM
[31]
  GI50: 2.29 µM
  TGI: 25.2 µM
[32]
  GI50: 2.87 µM
  TGI: > 100 µM
[33]
  GI50: 3.2 µM
  TGI: > 100 µM
[34]
  GI50: 2.36 µM
  TGI: > 100 µM
[35]
  GI50: 2.44 µM
  TGI: > 100 µM
[36]
  GI50: 5.11 µM
  TGI: > 100 µM
[37]
  GI50: 1.51 µM
  TGI: 12.5 µM
[38]
  GI50: 8.05 µM
  TGI: > 100 µM
[39]
  GI50: 5.85 µM
  TGI: > 100 µM
[40]
  GI50: 0.627 µM
  TGI: 9.82 µM
[41]
  GI50: 2.4 µM
  TGI: > 100 µM
[42]
  GI50: 3.61 µM
  TGI: > 100 µM
[43]
  GI50: 0.877 µM
  TGI: 25 µM
[44]
  GI50: 26.7 µM
  TGI: > 100 µM
[45]
  GI50: 3.25 µM
  TGI: > 100 µM
[46]
  GI50: 1.06 µM
  TGI: > 100 µM
[47]
  GI50: 0.668 µM
  TGI: > 100 µM
[48]
  GI50: 4.16 µM
  TGI: > 100 µM
[49]
  GI50: 5.64 µM
  TGI: > 100 µM
[50]
  GI50: 1.91 µM
  TGI: > 100 µM
[51]
  GI50: 2.46 µM
  TGI: > 100 µM
[52]
  GI50: 1.78 µM
  TGI: > 100 µM
[53]
  GI50: 1.92 µM
  TGI: > 100 µM
[54]
  GI50: 5.35 µM
  TGI: > 100 µM
[55]
  GI50: 0.433 µM
  TGI: > 100 µM
[56]
  GI50: 3.09 µM
  TGI: 22.5 µM
[57]
  GI50: 1.31 µM
  TGI: > 100 µM
